Data as given in BindingDB's records for doi:10.1021/acs.jmedchem.1c01403 (Lupin, 2021).

Experiment: Inhibition of PHA-stimulated IL2 secretion in human Jurkat T cells preincubated for 10 mins followed by PHA addition and measured after 20 to 24 hrs by ELISA

| Compound | IC50 [nM] |
| --- | --- |
| CCn1nc(-c2ccc(C)c(-c3ccc(NC(=O)c4c(F)cccc4F)cc3)c2)oc1=O [US10292981, Example 34] | 78 |
| Cc1ccc(C2=NOC(C)(C)C2)cc1-c1cnc(NC(=O)c2c(F)cccc2F)cn1 [US10292981, Example 53] | 328 |
| Cc1ccc(-c2nn(C)c(=O)o2)cc1-c1ccc(NC(=O)c2c(F)cccc2F)cc1 [US10292981, Example 33] | 34 |
| Cc1ccc(C2=NOC(C)(C)C2=O)cc1-c1ccc(NC(=O)c2c(F)cccc2F)cc1 [US10292981, Example 3] | 69 |
| Cc1ccc(C2=NOC(C)(C)C2=O)cc1-c1ccc(NC(=O)c2c(F)cccc2F)nc1 [US10292981, Example 4] | 178 |

More lines, now with the values ahead:

| IC50 [nM] | Compound |
| --- | --- |
| 171 | Cc1ccc(C2=NOC(C)(C)C2=O)cc1-c1cnc(NC(=O)c2ccccc2Cl)cn1 [US10292981, Example 78] |
| 65 | Cc1ccc(C2=NOC(C)(C)C2=O)cc1-c1cnc(NC(=O)c2c(F)cccc2Cl)cn1 [US10292981, Example 80] |
| 94 | Cc1ccc(C2=NOC(C)(C)C2=O)cc1-c1cnc(NC(=O)c2c(F)cncc2F)cn1 [US10292981, Example 114] |
| 150 | Cc1ccc(C2=NOC(C)(C)C2=O)cc1-c1cnc(C(=O)Nc2c(F)cccc2F)cn1 [US10292981, Example 121] |
| 64 | Cc1ccc(-c2nn(C)c(=O)o2)cc1-c1cnc(NC(=O)c2c(F)cccc2F)cn1 [US10292981, Example 87] |
